{"source": "patent US11510903B2", "about": "“Synergic pharmaceutical composition of the active enantiomer (S)-ketorolac and Gabapentin for the treatment of neuropathic pain” (priority 2018, dated 2022)", "key": {"[1]": {"settings": "fold more active; cited from earlier work"}, "[2]": {"experiment": "Relative pharmacological potency of S-Ketorolac tromethamine versus Rac Ketorolac and AA", "settings": "fold more potent"}, "[3]": {"tested_on": "rats with a chronic constriction injury (neuropathic pain)", "experiment": "Von Frey test (mechanical hyperalgesia, 15 g filament) in rats with chronic constriction injury of the sciatic nerve", "type": "in vivo, rat (male Wistar)", "settings": "oral", "excerpt": "(§1) Said experimental model is based on the unilateral ligature of the sciatic nerve, which produces a chronic constriction injury, (CCI). This experimental model has shown itself to be sensitive to a number of drugs that are used clinically for the symptomatic treatment of neuropathic pain. […] The following observed behaviors are indicative of neuropathic pain: (1) autotomy, the animal injures itself in the denervated leg, (2) allodynia, withdrawal of the leg in the face of harmless stimulus that may be mechanical or cold (acetone), (3) hyperalgesia, violent withdrawal of the leg in the face of a moderate thermal or mechanical stimulus (Von Frey filaments 15 g). These aforementioned parameters have been widely used on pharmacology and the modulation of neuropathic pain. The tests that are most used to determine allodynia and hyperalgesia are: mechanical hyperalgesia with the von Frey filaments, the cold allodynia with acetone, thermal hyperalgesia with the plantar test and mechanical hyperalgesia with the pinprick test.\nMale Wistar rats [Crl:(WI)fBR], with a body weight of 120-140 g at the start of the experimental phase, which weighed 160-180 g when the drugs were administered, were used for the particular study in this invention. The animals were kept in polycarbonate boxes under conditions of controlled temperature and light, with 12-hour cycles of light/dark and ad limitum water and food intake. All the experiments were carried out during the light phase. […]\nThe degree of hyperalgesia and allodynia in the rats submitted to the sciatic nerve surgery was determined by means of the Von Frey test and the acetone test. […]\nThe rats were placed on a metal screen in a box of transparent acrylic where they remained for at least 10 minutes to adapt before the test. The response was determined to a tactile stimulus applied to the plantar surface of the rear right leg using the 15 g von Frey filament. […]"}, "[4]": {"tested_on": "rats with a chronic constriction injury (neuropathic pain)", "experiment": "Acetone test (cold allodynia) in rats with chronic constriction injury of the sciatic nerve", "type": "in vivo, rat (male Wistar)", "settings": "oral", "excerpt": "as §1\nMale Wistar rats [Crl:(WI)fBR], with a body weight of 120-140 g at the start of the experimental phase, which weighed 160-180 g when the drugs were administered, were used for the particular study in this invention. The animals were kept in polycarbonate boxes under conditions of controlled temperature and light, with 12-hour cycles of light/dark and ad limitum water and food intake. All the experiments were carried out during the light phase. The animals were used and managed following the guidelines established in the Ethical Guidelines for Pain Research of the International Association for the Study of Pain, and following a protocol approved by the Local Committee of Ethics for the Management of Laboratory Animals. The number of experimental animals was kept to a minimum (n=6 to 8), and, at the end of the experimental determinations, the animals were sacrificed using carbon dioxide.\nThe model for ICC neuropathic pain described by Bennett and Xie in 1988 was standardized. The rats were anesthetized and the sciatic nerve of the rear right leg was immediately dissected, by means of an incision, dissecting the biceps femoris to locate the part that is most proximal to the trifurcation of the sciatic nerve and apply four loose ligatures with silk thread. At the end of the surgery, the muscle was sutured with absorbable thread and the skin with silk thread. The surgery of the rats falsely operated on (Sham) was done in the same way, however, the sciatic nerve was not tied. This entire procedure was performed under aseptic conditions.\nThe degree of hyperalgesia and allodynia in the rats submitted to the sciatic nerve surgery was determined by means of the Von Frey test and the acetone test. These determinations were made a day before the surgery and, 7 days after the surgery a time-course of 180 minutes was done for both the control (saline) and for the compounds that were administered orally, in the study, both singly and combined, to evidence the hyperalgesia and allodynia that were present. Then a time-course was made of hyperalgesia and allodynia, but now in rats with chronic treatment (1 administration/12 hours), carrying out the determinations of both hyperalgesia and allodynia 30 minutes after the morning administration of the treatments being studied and in the following period: 0, 1, 3, 5 and 7 days (14 administrations in total).\nAt the end of the Von Frey test, the rats were left to rest on the metal screen and after a 5-10 min period, approximately 0.1 mL of acetone was applied to the plantar surface of the rear legs using a syringe with a flexible plastic tip, below the metal grating. The time (seconds) the animal remained with its leg removed from the surface was recorded with a chronometer for 60 s after exposure to the acetone. The response time of the rear right leg was measured and three replications were made at intervals of at least 2 minutes. […]"}, "[5]": {"tested_on": "rats (lethal effects vs anti-allodynic effects)", "experiment": "Therapeutic index (DL50/DE50) and safety margin study in rats", "type": "in vivo, rat", "settings": "24 h post-treatment", "description": "As further support for this invention, the therapeutic index study was also performed on rats 24 h post-treatment, which is defined as the quotient of DL50 (24 h)/DE50. From said analysis and calculation, we get that the higher the result, the safer the drug, as this indicates the number of times it is necessary to increase DE50 for it to be turned into DL50 in the population being analyzed.\nIn other words, in a combination of said active ingredients, the CDR (for desired effects and lethal effects) was farther apart, therefore S-Ketorolac is safer in combination, as these variables are much farther apart. […] There is less distance between the CDR (desired effects and lethal effects) of the compound alone, than between the CDR (desired effects and toxic effects) of S-Ketorolac in combination with gabapentin."}, "[6]": {"settings": "cited from earlier work"}, "[7]": {"settings": "31.6 mg/kg gabapentin alone, 1.5 h after administration"}}}
{"smiles": "NC(CO)(CO)CO.O=C(c1ccccc1)c1ccc2n1CC[C@@H]2C(=O)O", "note": "[S-Ketorolac tromethamine, S-(−)-5-Benzoyl-2,3-dihydro-1H-pyrrolizine-1-carboxylic acid of 2-amino-2-(hydroxymethyl)-1,3-propanediol (1:1)]", "values": [{"measurement": "activity relative to the R form", "setting": "[1]", "value": 75, "unit": "times"}, {"measurement": "pharmacological potency relative to AA", "setting": "[2]", "value": 1037, "unit": "times"}, {"measurement": "pharmacological potency relative to Rac Ketorolac", "setting": "[2]", "value": 3.3, "unit": "times"}]}
{"smiles": "O=C(c1ccccc1)c1ccc2n1CC[C@@H]2C(=O)O", "note": "[S-Ketorolac]", "values": [{"measurement": "maximal response for anti-hyperalgesic effects", "setting": "[3]; 31.6 mg/kg S-Ketorolac alone, 1 h after administration", "value": "43.33±5.58", "unit": "%"}, {"measurement": "dose up to which the anti-hyperalgesic effect increased with dose", "setting": "[3]; doses 0.0316-100 mg/kg, no further increase above", "value": 3.16, "unit": "mg/kg"}, {"measurement": "anti-allodynic effect", "setting": "[4]; 0.0316 mg/kg S-Ketorolac", "value": "almost no anti-allodynic effects"}, {"measurement": "maximal anti-allodynic response", "setting": "[4]; 0.316 mg/kg S-Ketorolac alone, 30 minutes after administration", "value": "44.00±7.71", "unit": "%"}, {"measurement": "anti-allodynic effect", "setting": "[4]; 1.0 mg/kg S-Ketorolac", "value": "maximum anti-allodynic effect"}, {"measurement": "therapeutic index, DL50 (24 h)/DE50", "setting": "[5]", "value": "18,541"}]}
{"smiles": "NCC1(CC(=O)O)CCCCC1", "note": "[gabapentin]", "values": [{"measurement": "bioavailability", "setting": "[6]; 4,800 mg/day dose", "value": 27, "unit": "%"}, {"measurement": "metabolism", "setting": "[6]; eliminated by renal excretion", "value": "not appreciably metabolized"}, {"measurement": "binding to plasma proteins", "setting": "[6]; in vivo", "value": 3, "unit": "%"}, {"measurement": "concentration in the cephalospinal liquid as share of the concentration in plasma", "setting": "[6]; patients with epilepsy", "value": "approximately 20%"}, {"measurement": "maximal response for anti-hyperalgesic effects", "setting": "[3]; [7]", "value": "71.67±12.50", "unit": "%"}, {"measurement": "anti-allodynic effect", "setting": "[4]; 3.16 mg/kg gabapentin", "value": "practically does not generate anti-allodynic effects"}, {"measurement": "maximal anti-allodynic response", "setting": "[4]; [7]", "value": "45.40±6.20", "unit": "%"}, {"measurement": "anti-allodynic effect", "setting": "[4]; 31.6 mg/kg gabapentin alone, 3 h after administration", "value": "23.70±6.90", "unit": "%"}, {"measurement": "anti-allodynic effect", "setting": "[4]; 177.8 mg/kg gabapentin", "value": "maximum anti-allodynic effect"}, {"measurement": "time of maximal anti-allodynic response after administration (latency)", "setting": "[4]; gabapentin 31.6 mg/kg alone or with 0.316 mg/kg S-Ketorolac", "value": 1.5, "unit": "h"}]}
